Results reported in patent EP0626016B1, “[…] […]” (BRITISH TECHNOLOGY GROUP LIMITED, priority 1992, dated 1993).
Where two headings read alike, the source gives them in different places.

Target: T1, HRP Type VIA (Armoracia rusticana, UniProt P00433)
T1 sequence (P00433 31-338): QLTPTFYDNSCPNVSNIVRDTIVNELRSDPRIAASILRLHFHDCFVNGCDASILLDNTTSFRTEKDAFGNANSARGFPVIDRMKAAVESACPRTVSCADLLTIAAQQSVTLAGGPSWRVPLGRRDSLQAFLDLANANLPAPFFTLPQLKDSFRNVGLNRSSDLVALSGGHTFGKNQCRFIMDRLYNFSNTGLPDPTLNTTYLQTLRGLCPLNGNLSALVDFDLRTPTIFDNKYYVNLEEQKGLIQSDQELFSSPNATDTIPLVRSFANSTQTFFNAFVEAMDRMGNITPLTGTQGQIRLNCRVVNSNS
Conditions: for (d) Signal: Background: ratio (control = with no enhancer): control value in brackets not reported

| Structure (SMILES) | (a) Decrease in background (without HRP with test cpd.) (0.01 mg/ml, 10µl test compound) | (b) Increase in signal (with HRP, with test cpd.) (0.01 mg/ml, 10µl test compound) | (c) Increase in signal: background ratio (0.01 mg/ml, 10µl test compound) | (d) Signal: Background: ratio (control = with no enhancer) (0.01 mg/ml, 10µl test compound) | (a) Decrease in background (without HRP with test cpd.) (0.1 mg/ml, 10µl test compound) | (b) Increase in signal (with HRP, with test cpd.) (0.1 mg/ml, 10µl test compound) | (c) Increase in signal: background ratio (0.1 mg/ml, 10µl test compound) | (d) Signal: Background: ratio (control = with no enhancer) (0.1 mg/ml, 10µl test compound) | (a) Decrease in background (without HRP with test cpd.) (1 mg/ml, 10µl test compound) | (b) Increase in signal (with HRP, with test cpd.) (1 mg/ml, 10µl test compound) | (c) Increase in signal: background ratio (1 mg/ml, 10µl test compound) | (d) Signal: Background: ratio (control = with no enhancer) (1 mg/ml, 10µl test compound) | (a) Decrease in background (without HRP with test cpd.) | (b) Increase in signal (with HRP, with test cpd.) | (c) Increase in signal: background ratio |
| --- | --- | --- | --- | --- | --- | --- | --- | --- | --- | --- | --- | --- | --- | --- | --- |
| O=C(O)c1ccc(N=Nc2ccc(O)c(B(O)O)c2)cc1 [Compound 1018, 4-(3'-borono-4'-hydroxyphenylazo)benzoic acid] | Y | N | Y (Column (c) shows whether there was an increase in the signal:background ratio by over 25% of the control value (Y = yes) | 5.0 | Y | N | Y (Column (c) shows whether there was an increase in the signal:background ratio by over 25% of the control value (Y = yes) | 24.5 | Y | N | Y (Column (c) shows whether there was an increase in the signal:background ratio by over 25% of the control value (Y = yes) | 4.2 (1.9) | – | – | – |
| CC(C)COB(c1ccccc1)c1ccccc1 [Compound 1019, diphenylisobutoxyborane] | Y | N | Y (Column (c) shows whether there was an increase in the signal:background ratio by over 25% of the control value (Y = yes) | 3.2 (2.0) | Y | N | N (N = no) | 3.0 (2.9) | Y | N | N (N = no) | – | – | – | – |
| OB(O)c1c(Cl)cc(Cl)cc1Cl [Compound 1020, 2,4,6-trichlorophenylboronic acid] | Y | N | N (N = no) | 2.2 (2.0) | Y | N | N (N = no) | – | Y | N | N (N = no) | – | – | – | – |
| O=[N+]([O-])c1cc(B(O)O)ccc1Cl [Compound 1021, 4-chloro-3-nitrophenylboronic acid] | Y | Y | Y (Column (c) shows whether there was an increase in the signal:background ratio by over 25% of the control value (Y = yes) | 2.3 (1.8) | Y | Y | Y (Column (c) shows whether there was an increase in the signal:background ratio by over 25% of the control value (Y = yes) | 44.5 (2.8) | Y | Y | Y (Column (c) shows whether there was an increase in the signal:background ratio by over 25% of the control value (Y = yes) | 247.9 (4.5) | – | – | – |
| OB(O)c1cccc(Cl)c1Cl [Compound 1022, 2,3-dichlorophenylboronic acid] | Y | N | N (N = no) | 2.2 (2.0) | Y | N | Y (Column (c) shows whether there was an increase in the signal:background ratio by over 25% of the control value (Y = yes) | 3.6 (2.7) | Y | N | N (N = no) | – | – | – | – |
| OB(O)c1cc(Cl)ccc1Cl [Compound 1023, 2,5-dichlorophenylboronic acid] | Y | N | N (N = no) | – | Y | N | N (N = no) | 3.1 (2.7) | Y | N | N (N = no) | – | – | – | – |
| OB(O)c1ccc(Cl)c(Cl)c1 [Compound 1024, 3,4-dichlorophenylboronic acid] | Y | N | N (N = no) | – | Y | Y | Y (Column (c) shows whether there was an increase in the signal:background ratio by over 25% of the control value (Y = yes) | 5.4 (2.8) | Y | N | Y (Column (c) shows whether there was an increase in the signal:background ratio by over 25% of the control value (Y = yes) | 7.6 (4.5) | – | – | – |
| OB(O)c1cc(Cl)cc(Cl)c1 [Compound 1025, 3,5-dichlorophenylboronic acid] | Y | N | N (N = no) | 2.1 (2.0) | Y | N | N (N = no) | – | Y | N | N (N = no) | – | – | – | – |
| Nc1c(Cl)cc(Cl)c(B(O)O)c1Cl [Compound 1026, 3-amino-2,4,6-trichlorophenylboronic acid] | Y | N | N (N = no) | 2.1 (2.0) | Y | Y | Y (Column (c) shows whether there was an increase in the signal:background ratio by over 25% of the control value (Y = yes) | 72.4 (2.8) | Y | N | Y (Column (c) shows whether there was an increase in the signal:background ratio by over 25% of the control value (Y = yes) | 40.5 (4.5) | – | – | – |
| OB(O)c1ccccc1Cl [Compound 1027, 2-chlorophenylboronic acid] | Y | N | N (N = no) | 2.1 (2.0) | Y | N | N (N = no) | 3.2 (2.9) | Y | N | N (N = no) | – | – | – | – |
| OB(O)c1cccc(Cl)c1 [Compound 1028, 3-chlorophenylboronic acid] | – | – | – | – | – | – | – | – | – | – | – | – | Y | N and Y | – |
| OB(O)c1ccc(Cl)cc1 [Compound 1029, 4-chlorophenylboronic acid] | – | – | – | – | – | – | – | – | – | – | – | – | Y | Y | Y (key: Column (c) shows whether there was an increase in the signal:background ratio by over 25% of the control value (Y = yes; N = no) |
| O=C(CCl)Nc1cccc(B(O)O)c1 [Compound 1031, 3-chloroacetylaminophenylboronic acid] | Y | N | N (N = no) | 2.1 (2.0) | Y | N | N (N = no) | 3.3 (2.9) | Y | N | N (N = no) | – | – | – | – |
| CCC(C)CNc1cccc(B(O)O)c1 (stereo not shown) [Compound 1032, 3-(2'-methylbutylamino)phenylboronic acid] | Y | N | N (N = no) | – | Y | N | N (N = no) | 3.4 (2.9) | Y | N | N (N = no) | – | – | – | – |
